Measured values from patent US11376269B2, “Pharmaceutical compositions for the treatment of chemoresistant acute myeloid leukemia (AML)” (INSERM (INSTITUT NATIONAL DE LA SANTÉ ET DE LA RECHERCHE …, priority 2016, dated 2022).

Columns and labels:
MOLM14 cells = experiment: Cell viability of MOLM14 cells, AnnexinV/7AAD-based flow cytometry assay; design: species or system human
Experimental: (§1) FIG. 3. In vitro study of the CD39 protein expression in MOLM14 AML cells after cytarabine (AraC) treatment in normoxia (21%) and hypoxia (1%). (A) Western analysis of the expression of HIF-1alpha, VDAC, CD39, P2Y13, pATF2 and HSP90 (as loading control) in MOLM14 cells after normoxia (21% O2) or hypoxia (1% O2) for 24 h, 48 h or 72 h. Each lane contained 30 μg of protein. (B-C-D) MOLM14 cells were treated with AraC (2 μM, IC50 in normoxia) for 48 h either in normoxia (21% O2) or hypoxia (1% O2). Flow cytometric analyses were perform to assess cell viability (B), CD39^+ expression (C-D). The results are representative of at least three independent experiments. The ATPase activity of CD39 in MOLM14 cells after Ara-C treatment was assessed and the concentration of non-hydrolyzed extracellular ATP was determined using the ATPlite assay (PerkinElmer) (E).
(§2) FIG. 4. In vitro potentiatingeffect of ARL67156 (CD39 inhibitor) with cytarabine (AraC) in MOLM14 cell line. (A-B) MOLM14 cells were either treated or not with 2 μM Ara-C, 100 μmol/L ARL or 250 μmol/L of another CD39 inhibitor, POM-1, for 48 h. Cell viability was assessed using AnnexinV/7AAD-based flow cytometry assay. (C) U937 AML cell line was either treated or not with 0.5 μM Ara-C or 100 μmol/L ARL. The percent of viable cells was analyzed using AnnexinV/7AAD-based flow cytometry assay.
(§3) In vitro potentiating effect of CD39 inhibitor with cytarabine in MOLM14 cell line. In order to explore the effect of CD39 onto the chemoresistance to AraC in AML cell lines in vitro, we first tested the consequence of CD39 inhibition using an ecto-ATPase inhibitor ARL67156. […] High ADP and/or P2YR13 activation might be involved into this compensatory and protective mechanism.

U937 AML cell line = experiment: Cell viability of U937 AML cell line, AnnexinV/7AAD-based flow cytometry assay; design: species or system human; settings: U937, 0.5 μM Ara-C, 100 μmol/L ARL
Experimental: as §2, §3

U937 = U937 (sensitive) cell line-derived xenograft (CLDX); assay type: in vivo, mice
Experimental: (§4) FIG. 2. Validation of the increase in CD39 after cytarabine (AraC) in 9 patient-derived xenografts, 45 AML patients and 2 cell line-derived xenografts. (A) The total number of human AML cells expressing CD45, CD33 and CD44 in 9 patient-derived xenograft (PDX) was analyzed and quantified using flow cytometry in AraC-treated xenografted mice compared to PBS-treated xenografted mice in bone marrow and spleen. (B) Flow cytometric analysis of the percent of CD34^+CD38^− immature cell population was performed in human viable residual CD45^+CD33^+ AML cells from AraC-treated xenografted mice compared to PBS-treated xenografted mice in bone marrow. (C) The percent of CD39^+ cells in the bulk population and CD34^+CD38^− immature cell population of human viable residual CD45^+CD33^+ AML cells was assessed in AraC-treated xenografted mice compared to PBS-treated xenografted mice in bone marrow by flow cytometry. […]
(§5) Validation of the increase in CD39 expression in 9 patient-derived xenograft (PDX) models treated with cytarabine and in 45 AML patients at D35 compared to diagnosis. […] Then, we analyzed CD39 expression in two AML cell line-derived xenografts, which confirmed our previous results in patients and PDXs.

CD39 [1] = experiment: ATPase activity of CD39 in MOLM14 cells, non-hydrolyzed extracellular ATP by ATPlite assay; assay type: cell-based, human; settings: MOLM14 after AraC, normoxic and hypoxic conditions
Experimental: as §1, with “(B-C-D) MOLM14 cells were treated with AraC (2 μM, IC50 in normoxia) for 48 h either in normoxia (21% O2) or hypoxia (1% O2).” left out, “The results are representative of at least three independent experiments.” left out
(§6) Then, we have established an AML cell line model to further study this mechanism. Using MOLM14 AML cell lines and hypoxic condition (1% versus 21% O2), we have analyzed the CD39 expression and ATP-hydrolyzing activity (FIG. 3).

AML blasts = experiment: Flow cytometry of peripheral blood of 45 AML patients at D35 post-chemotherapy versus diagnosis; assay type: in vivo, human; settings: day 35 post-AraC versus diagnosis
Experimental: as §4, §5

CD39 [2] = experiment: CD39 expression in MOLM14 cells after AraC in normoxia and hypoxia, flow cytometry; assay type: cell-based, human; settings: MOLM14, AraC 2 μM, 48 h, normoxic and hypoxic conditions
Experimental: as §1, with “(B-C-D) MOLM14 cells were treated with AraC (2 μM, IC50 in normoxia) for 48 h either in normoxia (21% O2) or hypoxia (1% O2).” left out, “The results are representative of at least three independent experiments.” left out
as §6

[3] = test system: primary AML cells from patients; experiment: NSG mice xenografted with primary AML cells from patients (PDX), flow cytometry of residual cells; assay type: in vivo
Experimental: FIG. 2. Validation of the increase in CD39 after cytarabine (AraC) in 9 patient-derived xenografts, 45 AML patients and 2 cell line-derived xenografts. (A) The total number of human AML cells expressing CD45, CD33 and CD44 in 9 patient-derived xenograft (PDX) was analyzed and quantified using flow cytometry in AraC-treated xenografted mice compared to PBS-treated xenografted mice in bone marrow and spleen. (B) Flow cytometric analysis of the percent of CD34^+CD38^− immature cell population was performed in human viable residual CD45^+CD33^+ AML cells from AraC-treated xenografted mice compared to PBS-treated xenografted mice in bone marrow. (C) The percent of CD39^+ cells in the bulk population and CD34^+CD38^− immature cell population of human viable residual CD45^+CD33^+ AML cells was assessed in AraC-treated xenografted mice compared to PBS-treated xenografted mice in bone marrow by flow cytometry. (D-E-F) Similarly, flow cytometric analyses of 45 AML patients in peripheral blood at D35 (post-chemotherapy) and diagnosis to assess the percentage of blasts (D), of CD34^+CD38^− immature cells (E), and of CD39^+ residual cells in both total blasts (bulk) and CD34^+CD38^− population (F). (G-H) Flow cytometry analysis of 1 resistant cell line (MOLM14) and 1 sensitive cell line (U937)-derived xenograft (CLDX) to assess the total cell tumor burden of human viable AML cells in AraC- and PBS-treated CLDX (G), the percent of CD39^+ cells (H).
Until recently, mouse models of AML have been extensively used to characterize the nature and origin of LSCs (in part by our group: Sanchez et al. 2009. Sarry et al. 2011), but less frequently used to study their chemoresistance and miminum residual disease in vivo, an approach that is crucial to improve therapeutic outcome of AML patients. Thus, we tested and established an appropriate dose and regimen for use of AraC as baseline cytotoxic in our NSG mice xenografted with primary AML cells from patients seen at diagnosis or relapse of disease. We have access to a large resource of primary samples through our Biobank of the Hematology Clinical Department of the Oncopole Hospital in Toulouse (HIMIP, INSERM-U1037, ˜150 patients newly diagnosed/year) and in collaboration with Drs Gwen Danet-Desnoyers and Martin Carroll (University of Pennsylvania, Pa., USA). Then, we analyzed human AML cells surviving after AraC treatment over time. […] CANCER DISCOVERY. 2017).
Based on this model and the current hypothesis that AraC-resistant cells are rare, replicatively dormant and well adapted to hypoxic conditions (Ishikawa et al. 2007; Raaijmakers, 2011; Wilson and Hay, 2011), we have further analyzed all of these characteristics in AraC-treated patient-xenografted mice. We have first confirmed that CD34^+CD38^− cell population is increased post-AraC chemotherapy in residual AML cells. […] Finally, we have identified a signature of 15 genes (amongst of 350 genes, including CD39/ENTPD1 and P2Y13), that are the most differentially expressed in all of the three AML patient-derived xenografts after AraC treatment as compared to control samples using our in vivo PDX models coupled to a gene expression analysis (FIG. 1a).
as §5, with “diagnosis. We first examined the effect of AraC on CD39 expression in residual viable AML cells from our NSG model xenografted with primary AML cells from 9 patients (FIG. 2a).” for “diagnosis.”

[4] = AraC-treated patient-xenografted mice

CCN(CC)c1ncnc2c1ncn2[C@@H]1O[C@H](COP(=O)(O)OP(=O)(O)C(Br)(Br)P(=O)(O)O)[C@@H](O)[C@H]1O [ARL67156]
induction of cell death alone (MOLM14 cells; MOLM14, 100 μmol/L ARL, 48 h, in absence of AraC): did not induce cell death alone
potentiating effect with AraC on cell death (MOLM14 cells; MOLM14, with 2 μM Ara-C, 100 μmol/L ARL or 250 μmol/L POM-1, 48 h): potentiatingeffect
potentiation of the effect of AraC in inducing cell death (U937 AML cell line): did not potentiate the effect of AraC in inducing cell death

Nc1ccn([C@@H]2O[C@H](CO)[C@@H](O)[C@@H]2O)c(=O)n1 [AraC, cytarabine]
IC50 (MOLM14 cells; Homo sapiens, MOLM-14, MOLM14 cells, normoxia (21% O2)): 2000 nM
total cell tumor burden in bone marrow and spleen (U937): significant cytoreduction
CD39 expression (U937; post-AraC versus vehicle): increases
remaining ATP (ATP-hydrolyzing activity of CD39) (CD39 [1]): significant decrease
CD34+CD38− population and CD39 cells in residual bulk and immature populations (AML blasts): increase
percent and expression of CD39 in residual viable cells (CD39 [2]): increased the percent and expression of CD39
total cell tumor burden in bone marrow and spleen ([3]; 9 PDX, AraC-treated versus PBS-treated mice): significant cytoreduction
percent of CD39 cells in bulk and immature CD34+CD38− population ([3]; 9 PDX, AraC-treated versus control mice): increase in percent of CD39 cells
CD34+CD38− population in residual AML cells ([3]; 9 PDX, post-AraC, bone marrow): increase
killing of cycling and quiescent cells and LSCs in vivo [3, 4]: equally kills both cycling and quiescent cells as well as LSCs in vivo
type of cell death induced in vivo [3, 4]: ROS-/MMP-dependent apoptotic cell death
peripheral engraftment and total cell tumor burden ([3]; all patients tested, PDX in NSG mice): significant cytoreduction
duration of response ([3]; variable from patient to patient, PDX in NSG mice): 2-7 weeks
